Experimental data reported in US20160331717A1, “CABAZITAXEL AND ITS USE FOR TREATING CANCER” (AVENTIS PHARMA S.A., priority 2015, published 2016).
Read-outs that look alike come from different tables or passages of the source.

Columns and labels:
[1] = Pharmacokinetics of cabazitaxel in POP6792 (plasma, LC-MS/MS, Cycle 1); assay type: in vivo, human
Protocol: Total cabazitaxel concentrations in plasma were determined using a validated liquid chromatography with tandem mass spectrometry method (LC-MS/MS) with a lower limit of quantification (LLOQ) of 1 ng/mL.

[2] = tested on: advanced solid tumor patients with varying degrees of hepatic impairment; conditions: for maximum tolerated dose (MTD): 1-hour IV infusion every 3 weeks; for death related to study drug: one patient
Protocol: • The primary endpoint was the occurrence of DLTs during Cycle 1. • The secondary endpoints were: • Treatment-emergent adverse events (TEAEs); • Laboratory abnormalities; and, • Pharmacokinetic parameters (Cmax, Ceoi, tmax, tlast, AUClast, AUCO-24, AUCO-72, t1/2z, AUC, CL and Vss). • The effect of the degree of hepatic impairment on cabazitaxel PK parameters was evaluated according to a linear mixed effects model (Log [parameter]=Cohort+Error) with a fixed term for Cohort, fit by estimated generalized least squares (GLS) using SAS PROC MIXED. Estimate and 90% confidence interval (CI) for the geometric mean ratio of each cohort versus Cohort 1 and of Cohorts 3 and 4 versus Cohort 2 were provided for CL, CL/BSA, and exposure parameters (Cmax, AUC, AUClast, AUCO-24 and AUCO-72) normalized to actual cabazitaxel dose in mg/m^2.
• The study was designed as an open-label, dose-escalation, multi-center study of cabazitaxel administered as a 1-hour intravenous (IV) infusion every 3 weeks in cancer patients with varying degrees of hepatic impairment. Patients were enrolled in 4 cohorts based on hepatic function at baseline graded by total bilirubin and aspartate aminotransferase (AST): • Cohort 1: normal hepatic function (total bilirubin supper limit of normal [ULN]; aspartate aminotransferase [AST]≦ULN), • Cohort 2: mild hepatic impairment (total bilirubin >1 to ≦1.5×ULN or AST>1.5×ULN), • Cohort 3: moderate hepatic impairment (total bilirubin >1.5× to ≦3.0×ULN; AST=any), • Cohort 4: severe hepatic impairment (total bilirubin >3.0×-10×ULN; AST=any). • All liver function tests must be completed within 48 hours prior to start of treatment, and reviewed by the investigator or their designee before treatment administration.
Cabazitaxel is administered on Day 1 of each 3-week cycle. Patients received cabazitaxel administered by IV infusion over 1 hour at the dose specified for each cohort. The actual amount of cabazitaxel administered was adjusted at each cycle based on body surface area (BSA) to a maximum BSA of 2.1 m^2 (i.e., patients with a BSA over 2.1 m2 will receive the same amount of cabazitaxel as those with a BSA of 2.1 m).
For Cohorts 2, 3 and 4, dose-escalation was based on dose-limiting toxicities (DLTs) during Cycle 1; real time PK information was used along with safety information. The maximum administered dose (MAD) was to be reached at the dose level when at least 2 patients develop a DLT during Cycle 1. The MTD was defined as the highest dose at which no more than 0 of the first 3 patients, or 1 of 6 patients, experience a DLT during Cycle 1, to a maximum dose of 25 mg/m2. The MTD was one dose level below the MAD.
To be considered a DLT, the clinical adverse event (AE) or laboratory abnormality should be drug-related as assessed by the investigator.
Liver DLTs in patients with hepatic dysfunction (Cohorts 2, 3 and 4) were defined as an increase in total and direct bilirubin and/or transaminase levels to 3 times the baseline value.

[3] = POH0124; CV=38.8%, n=170; cited from earlier work
[4] = Cohort 2, mild hepatic impairment
[5] = Cohort 3 at the MTD, 4/7 patients

CO[C@H]1C(=O)[C@]2(C)[C@@H](OC)C[C@H]3OC[C@@]3(OC(C)=O)[C@H]2[C@H](OC(=O)c2ccccc2)[C@]2(O)C[C@H](OC(=O)[C@H](O)[C@@H](NC(=O)OC(C)(C)C)c3ccccc3)C(C)=C1C2(C)C [cabazitaxel, 4α-acetoxy-2α-benzoyloxy-5β,20-epoxy-1-hydroxy-7, 101-dimethoxy-9-oxo-11-taxen-13α-yl (2R,3S)-3-tert-butoxycarbonyl-amino-2-hydroxy-3-phenylpropionate]
CL/BSA estimate ([1]; Cohort 1, normal hepatic function, 90% CI: 8.6-20.8): 13.4 L/h/m2
CL/BSA estimate ([1]; Cohort 2, mild hepatic impairment, 90% CI: 17.6-31.4): 23.5 L/h/m2
CL/BSA geometric mean ratio ([1]; Cohort 2 versus Cohort 1, 75% increase, 90% CI: 1.04-2.96): 1.75
mean CL/BSA ([1]; Cohort 3/10 mg/m^2 (aberrant PK behavior, excluded from statistical analysis)): 517 L/h/m2
CL/BSA geometric mean ratio, sensitivity analysis ([1]; Cohort 3 versus Cohort 2, after exclusion of patients with erratic PK profile, 6% decrease, 90% CI: 0.64-1.38): 0.94
AUClast/dose geometric mean ratio ([1]; Cohort 3 versus Cohort 2, 14% decrease, 90% CI: 0.50-1.46): 0.86
CL/BSA geometric mean ratio ([1]; Cohort 3 versus Cohort 2, 19% increase, 90% CI: 0.74-1.91): 1.19
CL/BSA geometric mean ratio, sensitivity analysis ([1]; Cohort 4 versus Cohort 2, after exclusion of patients with erratic PK profile, 39% decrease, 90% CI: 0.36-1.05): 0.61
AUClast/dose geometric mean ratio ([1]; Cohort 4 versus Cohort 2, 17% increase, 90% CI: 0.63-2.14): 1.17
CL/BSA geometric mean ratio ([1]; Cohort 4 versus Cohort 2, 23% decrease, 90% CI: 0.39-1.53): 0.77
mean CL/BSA, Cohort 3/10 mg/m^2 versus other Cohort 3 patients ([1]; higher): approximately 20 fold
effect of hepatic impairment on cabazitaxel clearance ([1]; mild or moderate hepatic impairment): no evidence that mild or moderate hepatic impairment results in a substantial decline in cabazitaxel clearance
CL/BSA estimate ([1]; moderate hepatic impairment): 27.9 L/h/m2
mean CL/BSA ([1]; other Cohort 3 patients, 15 and 20 mg/m2): 30.5 L/h/m2
CL/BSA estimate ([1]; severe hepatic impairment): 18.1 L/h/m2
maximum administered dose (MAD) [2, 4]: 25 mg/m2
maximum tolerated dose (MTD) [2, 4]: 20 mg/m^2
death related to study drug ([2]; Cohort 2/20 mg/m^2): died due to Gr 4 Candida sepsis related to study drug
maximum tolerated dose (MTD) ([2]; Cohort 3, moderate hepatic impairment): 15 mg/m^2
study drug-related febrile neutropenia, patients ([2]; Cohort 3 at the MTD, 1/7 patients): 14.3%
study drug-related TEAE diarrhea, patients ([2]; Cohort 3 at the MTD, 3/7 patients): 42.9%
Gr≧3 on-treatment neutrophil count decreased, patients [2, 5]: 57.1%
Gr≧3 on-treatment white blood cell count decreased, patients [2, 5]: 57.1%
death related to study drug ([2]; Cohort 4/20 mg/m^2): died due to a combination of shock, acute renal failure, tumor lysis syndrome (all related to study drug)
death due to disease progression, patients ([2]; all cohorts, 21/43 patients): 48.8%
patients who died by the cut-off date ([2]; all cohorts, 23 of 43 patients): 53.5%
study drug-related TEAE diarrhea, patients ([2]; human, in vivo): 41.7%
study drug-related TEAE fatigue, patients ([2]; human, in vivo): 83.3%
study drug-related serious TEAE febrile neutropenia, patients ([2]; human, in vivo): 25.0%
study drug-related serious TEAE neutropenia (Gr≧3), patients ([2]; human, in vivo): 33.3%
maximum administered dose (MAD) ([2]; human, in vivo, 3 weeks): 20 mg/m2
febrile neutropenia ([2]; in vivo): No patient experienced febrile neutropenia
safety profile at the MTD ([2]; patients with mild or moderate hepatic impairment): generally similar to that observed at 25 mg/m^2 in patients with normal hepatic function
typical cabazitaxel clearance (CL/BSA) by population PK analysis [3]: 26.4 L/h/m2
